Reference: PubChem BioAssay (NCI)
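Interpolation was linear, between the two tested concentrations surrounding the appropriate level; five concentrations were tested over 48 hours in 96-well plates. At the TGI there is no net growth.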 Where a SMILES comes first, the peptide text is derived from it. [ ]: non-standard residue; d: D form. The star is where a group is joined. mTyr = N[CH](Cc1cccc(O)c1)C(=O)O; Cbz = O=C(OCc1ccccc1)*; OBn = c1ccc(CO*)cc1

Experiments:
Assay in all cases: inhibition of tumour cell growth, NCI panel, 48 h
CCRF-CEM leukemia = tested on: CCRF-CEM leukemia
HT29 colon = tested on: HT29 colon
LOX IMVI melanoma = tested on: LOX IMVI melanoma
MALME-3M melanoma = tested on: MALME-3M melanoma
NCI-H23 lung = tested on: NCI-H23 lung
NCI/ADR-RES ovarian = tested on: NCI/ADR-RES ovarian
OVCAR-8 ovarian = tested on: OVCAR-8 ovarian
PC-3 prostate = tested on: PC-3 prostate
SN12C renal = tested on: SN12C renal
UO-31 renal = tested on: UO-31 renal

Row | SMILES | TGI (CCRF-CEM leukemia) [µM] | TGI (HT29 colon) [µM] | TGI (LOX IMVI melanoma) [µM] | TGI (MALME-3M melanoma) [µM] | TGI (NCI-H23 lung) [µM] | TGI (NCI/ADR-RES ovarian) [µM] | TGI (OVCAR-8 ovarian) [µM] | TGI (PC-3 prostate) [µM] | TGI (SN12C renal) [µM] | TGI (UO-31 renal) [µM]
1 | Brc1ccc(-c2cn3ccncc3n2)cc1 | > 100 | > 100 | > 100 | > 100 | > 100 | > 100 | > 100 | > 100 | > 100 | > 100
2 | CC(C)C1=CC23CCC4C(C)(C(=O)O)CCCC4(C)C2CC1C1C(=O)N(c2ccc(C(=O)O)cc2)C(=O)C13 (stereo not drawn) | – | > 100 | > 100 | > 100 | > 100 | > 100 | > 100 | > 100 | > 100 | > 100
3 | COc1ccc(C(=O)c2[nH]c(Nc3ccc(Cl)cc3)c(C(=S)Nc3ccccc3)c2N)cc1 | > 100 | > 100 | > 100 | > 100 | > 100 | > 100 | > 100 | – | > 100 | > 100
4 | CCN(c1cccc(NC(=S)Nc2ccccc2N(CC)c2cc(-c3ccccc3)no2)c1)c1cc(-c2ccccc2)no1 | > 100 | > 100 | > 100 | > 100 | > 100 | > 100 | > 100 | > 100 | > 100 | > 100
5 | Cc1ccc(CC(C)N)cc1 (stereo not drawn) | > 100 | > 100 | > 100 | > 100 | > 100 | – | > 100 | – | > 100 | > 100
6 | FC(F)(F)c1ccc2nc(Sc3ccccn3)cnc2c1 | > 100 | > 100 | > 100 | > 100 | 78.8 | > 100 | > 100 | – | > 100 | > 100
7 | COc1ccc(/C=C2\CN(C)C/C(=C\c3ccc(OC)c(OC)c3OC)C2=O)c(OC)c1OC | 0.0805 | – | 0.319 | 0.333 | – | – | 0.343 | 1.43 | 0.449 | –
8 | COc1nc(N)c(N=CC(OC(C)=O)C(OC(C)=O)C(COC(C)=O)OC(C)=O)c(=O)n1C (stereo not drawn) | > 100 | > 100 | > 100 | > 100 | > 100 | > 100 | > 100 | > 100 | > 100 | > 100
9 | CC(C)(C)c1cc(C2COC(c3cc(C(C)(C)C)c(O)c(C(C)(C)C)c3)CO2)cc(C(C)(C)C)c1O (stereo not drawn) | > 100 | > 100 | > 100 | > 100 | > 100 | > 100 | > 100 | > 100 | > 100 | > 100
10 | O=C(Nc1cccc(F)c1)c1cc2ccc(O)cc2oc1=Nc1ccccc1F | 6.42 | 51.5 | 7.15 | 18.6 | 5.86 | 10.3 | 5.85 | 24.3 | 22.5 | 14.2
11 | CC(C)CN=C(N)N=C(N)N | – | > 100 | > 100 | > 100 | > 100 | > 100 | > 100 | > 100 | > 100 | > 100
12 | COc1cc(C(c2ccc3c(c2)OCO3)N2C(=O)CCC2C(=O)O)cc(OC)c1OC (stereo not drawn) | > 100 | > 100 | > 100 | > 100 | > 100 | > 100 | > 100 | > 100 | > 100 | > 100
13 | CCOC(=O)[C@H](Cc1ccc(O)cc1)N=C1[C@H]2CCC[C@]1(O)[C@@](C)([N+](=O)[O-])C2 | > 100 | > 100 | > 100 | > 100 | > 100 | > 100 | > 100 | – | > 100 | > 100
14 | N#C/C(=C\c1c[nH]c2ccccc12)C(=O)c1ccc(O)c(O)c1 | > 36.2 | > 70.8 | > 100 | > 78.8 | > 100 | 70.1 | > 100 | > 100 | > 91.5 | 45.9
15 | C=CCOC(=O)C1C2OC3(C(C(=O)OC)=C2C(=O)OC)c2ccccc2CCC13 (stereo not drawn) | > 10 | > 10 | > 10 | > 10 | > 10 | > 10 | > 10 | > 10 | > 10 | > 10
16 | COc1ccc2c(c1)CCN1CCc3cc(OC)c(OC)cc3CC21 (stereo not drawn) | > 100 | > 100 | > 100 | – | > 100 | > 100 | > 100 | – | > 100 | > 100
17 | Cc1nc(-c2ccc(N=Cc3ccc(N(CCOS(C)(=O)=O)CCOS(C)(=O)=O)cc3C)cc2)cs1 | > 100 | > 100 | > 100 | > 100 | > 100 | > 100 | > 100 | > 100 | > 100 | 62
18 | COC(=O)C(Cc1cccc(O)c1)NC(=O)C(CC(=O)OCc1ccccc1)NC(=O)OCc1ccccc1 (stereo not drawn) (Cbz-Asp(OBn)-[mTyr]-OMe; configuration not given here) | – | > 100 | – | > 100 | > 100 | – | > 100 | > 100 | > 100 | > 100
19 | C[C@H]1C=C2[C@@H]3CC(C)(C(=O)O)CC[C@]3(C)CC[C@]2(C)[C@]2(C)CC[C@H]3C(C)(C)[C@@H](OC(=O)c4cccc5c(=O)c6ccccc6[nH]c45)CC[C@]3(C)[C@@H]12 (stereo partly drawn) | > 100 | > 100 | > 100 | > 100 | > 100 | > 100 | > 100 | > 100 | > 100 | > 100
20 | CN(C)CCCN1c2ccccc2CCc2ccc([N+](=O)[O-])cc21 | > 100 | 46.5 | 31.5 | 35.2 | > 100 | 42.1 | > 100 | > 100 | 58 | 76
21 | CNc1ccc(N)cc1C(=O)N1CCC[C@H]1CO | > 100 | > 100 | > 100 | > 100 | > 100 | > 100 | > 100 | > 100 | > 100 | > 100
22 | Cc1ccc(/C(O)=C/C(=O)C(=O)NN=C(c2ccccc2)c2ccccc2)cc1 | > 100 | > 100 | > 100 | > 100 | > 100 | > 100 | > 100 | > 100 | – | > 100
